Patent US8034940B2, “Modulators of glucocorticoid receptor, AP-1, and/or NF-κB activity and use thereof” (Bristol-Myers Squibb Company, priority 2006, dated 2011)

Tested on: AP-1 induced transcriptional activity
Test: Cellular Transrepressional Assay (AP-1 luciferase reporter, PMA-activated A549 cells)
Format: cell-based
Conditions: for AP-1 Max % inh (Cellular Transrepression Assay) / Emax: maximum inhibition; for Emax: A549, 7 h, read-out: AP-1 Max % inh (Cellular Transrepression Assay)
Experimental: Cellular Transrepressional Assay
To measure the ability of test molecules to inhibit AP-1 induced transcriptional activity we utilized an A549 cell which was stably transfected with a plasmid containing 7× AP-1 DNA binding sites (pAP-1-Luc plasmid, Stratagene Co. La Jolla, Calif.) followed by the gene for luciferase. Cells were activated with 10 ng/ml of […] (PMA) plus or minus test molecules for 7 hours. After 7 hours a luciferase reagent was added to measure luciferase enzymatic activity in the cell. After a 10 minute incubation of luciferase reagent with cells, luminescence was measured in a TopCount luminescence counter. Repression of AP-1 activity was calculated as the percentage decrease in the signal induced by PMA alone. Test molecules were analyzed in the concentration range from 0.1 nM to 40 μM. EC50s were determined by using standard curve fitting methods such as Excel fit (Microsoft Co.).

[1] = Homo sapiens, Cellular Transrepression Assay
[2] = Homo sapiens, A549, Cellular Transrepression Assay

SMILES	EC50 (Cellular Transrepression Assay) [nM]	EC50 [2] [nM]	AP-1 Max % inh (Cellular Transrepression Assay) (Cellular Transrepression Assay) [%]	Emax [1] [%]
CC(O)c1ccc(-c2ccc3c(n2)Oc2ccccc2C3C(C)(C)C(=O)Nc2nncs2)cc1 (mixture of isomers) [Example 239]	12.4	–	44.85	–
O=C(CC1c2ccccc2Oc2ccccc21)Nc1nc(Cc2ccc(-c3ccncc3)cc2)cs1 [Example 1]	–	157	–	69.3
O=C(CC1c2ccccc2Oc2ccccc21)Nc1nc(-c2ccc(F)c3ccccc23)cs1 [Example 2]	–	–	–	42.7
Cc1ccc(-c2csc(NC(=O)CC3c4ccccc4Oc4ccccc43)n2)c2ccccc12 [Example 3]	–	–	–	47.8
O=C(CC1c2ccccc2Oc2ccccc21)Nc1nc(-c2cccc3ccccc23)cs1 [Example 4]	–	–	–	56.5
CC(C)(C(=O)Nc1nc(Cc2ccc(-c3ccncc3)cc2)cs1)C1c2ccccc2Sc2ccccc21 [Example 5]	–	58.2	–	66
CC(C)(C(=O)Nc1nc(-c2cccc3ccccc23)cs1)C1c2ccccc2Sc2ccccc21 [Example 6]	–	461	–	67.9
Cc1ccc(-c2csc(NC(=O)C(C)(C)C3c4ccccc4Sc4ccccc43)n2)c2ccccc12 [Example 7]	–	303	–	64.9
CC(C)(C(=O)Nc1nc(-c2ccc(F)c3ccccc23)cs1)C1c2ccccc2Sc2ccccc21 [Example 8]	–	546	–	69
CC(C)(C(=O)Nc1nc(-c2cccc3ccccc23)cs1)C1c2ccccc2-c2ccccc21 [Example 19]	–	–	–	52.7

Second part, led by results:

EC50 (Cellular Transrepression Assay) [nM]	EC50 [2] [nM]	SMILES	AP-1 Max % inh (Cellular Transrepression Assay) (Cellular Transrepression Assay) [%]	Emax [1] [%]
16.8	–	CC(C)Oc1ccc(-c2ccc3c(n2)Oc2c(F)cccc2C3C(C)(C)C(=O)Nc2nncs2)cc1F (racemic) [Example 163]	49.60	–
5.58	–	CN(C)C(=O)c1ccc(-c2ccc3c(n2)Oc2c(F)cccc2C3C(C)(C)C(=O)Nc2nncs2)cc1 (racemic) [Example 164]	57.26	–
25.6	–	CN(C)C(=O)c1ccc(-c2ccc3c(n2)Oc2c(F)cccc2C3C(C)(C)C(=O)Nc2nncs2)cc1F (racemic) [Example 165]	56.92	–
36.6	–	Cc1nnc(NC(=O)C(C)(C)C2c3ccc(-c4ccc(C(=O)N(C)C)c(F)c4)nc3Oc3c(F)cccc32)s1 (racemic) [Example 167]	57.94	–
–	27	CN(C)C(=O)c1ccc(-c2ccc3c(n2)Oc2ccccc2[C@@H]3C2(C(=O)Nc3nncs3)CCC2)cc1 (single isomer, unassigned) [Example 480]	–	44
–	579	CN(C)C(=O)c1ccc(-c2ccc3c(n2)Oc2ccccc2[C@H]3C2(C(=O)Nc3nncs3)CCC2)cc1 (single isomer, unassigned) [Example 481]	–	33.8
–	16.8	CC(C)(C(=O)Nc1nc(Cc2ccc(-c3ccncc3)cc2)cs1)C1c2ccccc2S(=O)(=O)c2ccccc21 [Example 10]	–	86.5
–	882	CC(C)(C(=O)Nc1nc(-c2ccc(F)c3ccccc23)cs1)C1c2ccccc2S(=O)(=O)c2ccccc21 [Example 11]	–	68.5
–	461	CC(C)(C(=O)Nc1nc(-c2cccc3ccccc23)cs1)C1c2ccccc2S(=O)(=O)c2ccccc21 [Example 12]	–	67.9
–	566	Cc1ccc(-c2csc(NC(=O)C(C)(C)C3c4ccccc4S(=O)(=O)c4ccccc43)n2)c2ccccc12 [Example 13]	–	60.3
–	501	CC(C)(C(=O)Nc1nc(-c2cccc3ccccc23)cs1)C1c2ccccc2Cc2ccccc21 [Example 15]	–	65.9
–	303	Cc1ccc(-c2csc(NC(=O)C(C)(C)C3c4ccccc4Cc4ccccc43)n2)c2ccccc12 [Example 16]	–	59.9
–	335	CC(C)(C(=O)Nc1nc(-c2ccc(F)c3ccccc23)cs1)C1c2ccccc2Cc2ccccc21 [Example 17]	–	68
–	542	CC(C)(C(=O)Nc1nccs1)C1c2ccccc2-c2ccccc21 [Example 18]	–	37.6
